The values that follow come from patent publication US9528143B2, “Tracer reagents that enhance reaction-product analysis” (Sigma-Aldrich Co. LLC, priority 1999, dated 2016).

Bounds are passed on as bounds.

One experiment has as its system restriction enzymes. The experiment can be described thus: Restriction digest of NdeI-cut pUC19 with and without dye, agarose gel. The experiment is classed as biochemical. To be noted: crude dye, all enzymes tested with the exception of KpnI, FIG. 17. The procedure: The effectiveness of restriction enzymes in cutting target DNA when a dye is present in the reaction mixture was evaluated. A variety of restriction enzymes were assayed for the detrimental effect of adding Amaranth (No. 31, Table 2) to a restriction digest as assayed by agarose gel electrophoresis. NdeI-cut pUC19 plasmid was prepared. This linearized plasmid was then digested with one of several restriction enzymes which normally cut pUC19 at a polylinker site. Thus, each enzyme would be expected to yield a product of similar sizes (ranging from 212 to 263 bp). The restriction enzyme digests were performed in the presence, or absence, of Amaranth dye, and at various concentrations of the enzyme. Column 1 (the leftmost column) contains 100 bp molecular weight ladders. Columns 2-4 contains cleavage products from sequential 5-fold dilutions of the restriction enzymes in the presence of dye. Columns 5-7 are as columns 2-4 but without dye. Columns 2 and 5 contained the restriction enzyme at 1/10th the suppliers concentration (i.e. the enzyme was considered a 10× concentration). The buffers used for the digests were as recommended by the supplier. The enzymes used are listed along the right side of the gel. The relative susceptibility of the enzyme to the dyes' presence is reported next to the enzyme. The sizes of the small bands in the electrophoresis runs range from 212 to 263 bp. […]

The next experiment concerns the target T1, Taq DNA polymerase (Thermus aquaticus, UniProt P19821).
T1 construct: purchased Sigma Chemical Co., St. Louis, Mo
The experiment is described as follows: PCR yield (TCA precipitation) versus dye concentration, purity and counterion. The experiment is classed as biochemical. The settings on record: for PCR toxicity by counterion: FIGS. 12A and 12B. On the procedure: The dyes that survived these preceding tests were included in a PCR toxicity study. The dyes were added to PCR reactions at concentrations considered adequate for product performance. Enough of a 2× PCR master mix consisting of Taq DNA polymerase, 0.1 u/μl (Sigma Chemical Co., St. Louis, Mo.), PCR buffer (2×) (Sigma), dNTP's (200 μM each) (Sigma), α^32PdCTP (Amersham USA, Piscataway, N.J.), target DNA (lambda, 2 ng/μl) (Sigma) and primers (Perkin-Elmer 500 bp control, 2 μM) (Perkin-Elmer, Norwalk, Conn.) was prepared to accommodate all 11 remaining dyes plus three no dye controls. Ten μl of the 2× master mix was dispensed into reaction tubes followed by addition of 10 μl of aqueous darkly colored dye solutions or water (controls). The PCR cycling protocol was 20 cycles of 94/55/72° C. at one minute each. 20 μl of quench solution ([…] calf thymus DNA, 20 mM EDTA) was added followed by precipitation with 40 μl 40% trichloroacetic acid (TCA)/4% sodium pyrophosphate (NaPPi). The reactions were filtered on glass fiber filters, washed with 5% TCA/2% NaPPi and counted by scintillation methods. This quench/precipitation procedure will henceforth be referred to as “TCA precipitation”. […] The dyes that inhibited PCR were dropped from consideration (FIG. 6, PCR Tox, Table 2, those marked under “PCR”). […] Per cycle yield was calculated assuming the overall yield was the per cycle yield raised to the 20th power (FIG. 7). In FIG. 7, T1, T2, and T3 represent Taq controls (no dye) as in block and precipitation, numerals are dye number. Per cycle yield is calculated assuming […] where y is the 20 cycle yield (measured) and y1 is the per cycle yield. Table 3 summarizes the results as graphically depicted in FIG. 7 for each of dyes 23, 24, 25, 26, 31, and 39.
On the basis of performance to this point, the remaining dyes were considered substantially equivalent as tracer candidates. Acid violet 5 (number 39, Table 2) was chosen as a possible finalist candidate. Using this dye in a reaction mix at an absorbance of 10 (at its absorbance maximum of 527 nm) a PCR reaction was performed. […] This was considered unacceptable, but was overcome by further development efforts.
In general, the available dyes, as well as those investigated, are derived from unrelated applications. That is, many are used as fabric dyes, food colorings, biological stains etc. As such, they are available in various states of purity. In the case of the finalists, they all had purities of 80% or less, as determined by the product labels. In further experiments, PCR yields (determined by TCA precipitation) in reactions containing various concentrations of acid violet 5 (determined by A527) were compared before and after purification of the crude dye by reverse phase desalting. […] Since reversed phase desalting is not an attractive method for large scale dye purification, acid precipitation followed by ammonium hydroxide dissolution/evaporation to produce the ammonium dye was investigated. This procedure should result in an essentially salt free product. These procedures (reversed phase desalting and acid/ammonium hydroxide) were carried out for acid red 1 (No. 26, Table 2) and acid violet 5 (No. 39). […] The dyes were converted to their magnesium salts to further characterize the effect of counterion identity. This was accomplished by addition of magnesium chloride (excess) to a solution of the crude dye. The magnesium dye that immediately precipitated was recrystallized from water. […] In analogy with the magnesium salts, the calcium and zinc salts of acid red 1 were prepared to investigate whether the effect was divalent vs. monovalent cation or cation identity specific.

A further experiment has as its target Taq polymerase (Thermus aquaticus, UniProt P19821). The settings on record: Hoppe et al., BioTechniques 12:679-680 (1992); cited from earlier work.

Sequence of Taq polymerase (P19821 whole entry): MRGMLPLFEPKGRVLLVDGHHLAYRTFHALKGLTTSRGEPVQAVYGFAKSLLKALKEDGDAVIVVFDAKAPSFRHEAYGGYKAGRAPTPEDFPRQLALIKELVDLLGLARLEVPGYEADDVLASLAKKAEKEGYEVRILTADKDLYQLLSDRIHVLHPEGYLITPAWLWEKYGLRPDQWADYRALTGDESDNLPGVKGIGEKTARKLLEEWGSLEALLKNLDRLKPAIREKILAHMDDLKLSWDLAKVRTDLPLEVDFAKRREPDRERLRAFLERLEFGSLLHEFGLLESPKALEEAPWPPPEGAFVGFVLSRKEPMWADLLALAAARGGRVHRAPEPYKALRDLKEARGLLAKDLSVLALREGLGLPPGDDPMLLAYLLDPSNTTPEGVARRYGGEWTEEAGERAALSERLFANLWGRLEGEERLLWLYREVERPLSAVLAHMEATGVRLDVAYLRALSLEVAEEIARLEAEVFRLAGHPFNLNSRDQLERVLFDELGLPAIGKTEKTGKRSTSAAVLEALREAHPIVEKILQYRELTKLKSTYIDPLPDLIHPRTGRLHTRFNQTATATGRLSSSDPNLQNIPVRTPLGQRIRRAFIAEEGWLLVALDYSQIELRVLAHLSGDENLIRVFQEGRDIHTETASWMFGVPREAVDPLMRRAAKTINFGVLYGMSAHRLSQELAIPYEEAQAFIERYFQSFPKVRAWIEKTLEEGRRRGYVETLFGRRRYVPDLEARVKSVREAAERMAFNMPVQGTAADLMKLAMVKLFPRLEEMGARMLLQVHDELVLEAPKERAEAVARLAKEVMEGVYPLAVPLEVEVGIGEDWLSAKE
T1 sequence (P19821 whole entry): as above

Take `O=S(=O)([O-])c1ccc2c(N=Nc3ccc(S(=O)(=O)[O-])c4ccccc34)c(O)c(S(=O)(=O)[O-])cc2c1.[Na+].[Na+].[Na+]` [Dye 31, Amaranth]: in the experiment on restriction enzymes, the “effect of dye on restriction enzyme digests” value is reported as “relatively inert”.

`CC(=O)Nc1ccc(N=Nc2c(S(=O)(=O)[O-])cc3cc(S(=O)(=O)[O-])cc(NS(=O)(=O)c4ccc(C)cc4)c3c2O)cc1.[Na+].[Na+]` [Dye 39, Acid Violet 5]: on Taq DNA polymerase (dye in reaction mix at absorbance of 10 at 527 nm, relative to same reaction without dye, FIG. 10), the “loss in PCR product yield” value was at least 50%.

On to `CC(=O)Nc1cc(S(=O)(=O)[O-])cc2cc(S(=O)(=O)[O-])c(N=Nc3ccccc3)c(O)c12.[Na+].[Na+]` [acid red 1 Mg salt, acid red 1], for which, at Taq DNA polymerase (FIG. 12C), the “PCR toxicity of magnesium vs calcium and zinc salts” value is recorded as “least toxic”. The “PCR toxicity by counterion” value on Taq DNA polymerase is recorded as “much less toxic to PCR than either the sodium or ammonium salts”.

As to `CC(=O)Nc1cc(S(=O)(=O)[O-])cc2cc(S(=O)(=O)[O-])c(N=Nc3ccccc3)c(O)c12.[Na+].[Na+]` [acid red 1 ammonium, acid red 1], the “PCR toxicity by counterion” value on Taq DNA polymerase was “more PCR toxic than the sodium”.

In the case of `Cc1cc(C2(c3ccc(O)c(C)c3)OS(=O)(=O)c3ccccc32)ccc1O` [cresol red], the “compatibility with Taq” value at Taq polymerase is “compatible with Taq”.

Consider `OC[C@H]1O[C@@](CO)(O[C@H]2O[C@H](CO)[C@@H](O)[C@H](O)[C@H]2O)[C@@H](O)[C@@H]1O` [sucrose], for which, at Taq polymerase, the “compatibility with Taq” value is “compatible with Taq”.

With `O=C([O-])C1=NN(c2ccc(S(=O)(=O)[O-])cc2)C(=O)C1N=Nc1ccc(S(=O)(=O)[O-])cc1.[Na+].[Na+].[Na+]` (centres unmarked) [tartrazine], the “compatibility with Taq” value at Taq polymerase is listed as “compatible with Taq”.

Take acid violet 5 [acid violet 5 Mg salt]: the “PCR toxicity by counterion” value at Taq DNA polymerase was “much less toxic to PCR than either the sodium or ammonium salts”.

As for acid violet 5 [acid violet 5 ammonium], the “PCR toxicity by counterion” value on Taq DNA polymerase was “more PCR toxic than the sodium”.

For acid violet 5 [acid violet 5 desalted], at Taq DNA polymerase (desalted relative to crude compound, FIG. 11), the “susceptibility of PCR product yield to dye concentration” value is reported as “much less susceptible to dye concentration”.
